Measurements: patent US6472418B1, “Non-peptide NK1 receptors antagonists” (Warner-Lambert Company, priority 1998, dated 2002)

The compounds below were run against T1, Human NK1 Receptor (Homo sapiens, UniProt P25103) (assay: In Vitro Human NK1 Receptor Binding Assay ([125I]Bolton-Hunter substance P displacement, IM9 cells)). Conditions: Human lymphoma IM9 cells, [125I]Bolton-Hunter substance P; Table 3, array-synthesis products; read-out: IC50 (nM) hNK1.
T1 construct: endogenous in cells; host or cells: Human lymphoma IM9 cells (whole cells)
T1 sequence (P25103 whole entry): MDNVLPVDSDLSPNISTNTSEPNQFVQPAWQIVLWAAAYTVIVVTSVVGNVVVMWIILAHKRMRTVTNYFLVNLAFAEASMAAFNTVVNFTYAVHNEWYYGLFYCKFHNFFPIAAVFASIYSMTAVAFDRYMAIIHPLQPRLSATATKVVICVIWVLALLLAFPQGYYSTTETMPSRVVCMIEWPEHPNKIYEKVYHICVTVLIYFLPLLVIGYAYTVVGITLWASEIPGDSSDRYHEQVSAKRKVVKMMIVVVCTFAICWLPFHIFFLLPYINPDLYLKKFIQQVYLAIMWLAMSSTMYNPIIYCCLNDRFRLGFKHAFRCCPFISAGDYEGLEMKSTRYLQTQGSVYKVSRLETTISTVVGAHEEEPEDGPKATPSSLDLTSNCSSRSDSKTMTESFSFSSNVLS
Outline: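 Radioligand displacement on whole IM9 human lymphoma cells (2.5×10^6 cells/mL) using [125I]Bolton-Hunter substance P (0.05-0.1 nM), 50 min at 21° C in Tris pH 7.4/MnCl2 buffer with protease inhibitors. Non-specific binding defined by […] [Sar9, Met(O2)11] substance P. Filtration, gamma counting, iterative curve fitting.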

SMILES	IC50 [nM]
O=C(O)C1CCC(CNC(=O)C(Cc2c[nH]c3ccccc23)NCc2cc3ccccc3o2)CC1 (centres unmarked) [Example 286, 4-{[2-[(Benzofuran-2-ylmethyl)-amino]-3-(1H-indol-3-yl)-propionylamino]-methyl}-cyclohexanecarboxylic acid]	> 10000
O=C(NCCN1CCOCC1)C(Cc1c[nH]c2ccccc12)NCc1cc2ccccc2o1 (centres unmarked) [Example 213, 2-[(Benzofuran-2-ylmethyl)-amino]-3-(1H-indol-3-yl)-N-(2-morpholin-4-yl-ethyl)-propionamide]	1260
COC(=O)C(NC(=O)C(Cc1c[nH]c2ccccc12)NCc1cc2ccccc2o1)c1ccccc1 (centres unmarked) [Example 304, [2-[(Benzofuran-2-ylmethyl)-amino]-3-(1H-indol-3-yl)-propionylamino]-phenyl-acetic acid methyl ester]	43

Same assay, conditions: Table 5; [125I]Bolton-Hunter substance P displacement, human IM9 cells; read-out: IC50 (nM) hNK1

SMILES	IC50 [nM]
CCOC(=O)Nc1ccccc1CNC(Cc1c[nH]c2ccccc12)C(=O)NC(C)c1ccccc1 (centres unmarked) [compound 367]	236

Same assay, conditions: human NK1 receptor, IM9 cells, [125I]Bolton-Hunter substance P; read-out: IC50 (nM) hNK1

SMILES	IC50 [nM]
CN(C)c1cccc(C2(CNC(=O)C(C)(Cc3c[nH]c4ccccc34)NCc3cc4ccccc4o3)CCCC2)c1 (centres unmarked) [compound 102, 2-[(Benzofuran-2-ylmethyl)-amino]-N-[1-(3-dimethylamino-phenyl)-cyclopentylmethyl]-3-(1H-indol-3-yl)-2-methyl-propionamide]	> 10000
CC(Cc1c[nH]c2ccccc12)(NCc1cc2ccccc2o1)C(=O)NCCN1CCCC1 (centres unmarked) [compound 155, 2-[(Benzofuran-2-ylmethyl)-amino]-3-(1H-indol-3-yl)-2-methyl-N-(2-pyrrolidin-1-yl-ethyl)-propionamide]	> 10000
CC(Cc1c[nH]c2ccccc12)(NCc1cc2ccccc2o1)C(=O)NC1CCCc2ccccc21 (centres unmarked) [compound 148, 2-[(Benzofuran-2-ylmethyl)-amino]-3-(1H-indol-3-yl)-2-methyl-N-(1,2,3,4-tetrahydro-naphthalen-1-yl)-propionamide]	> 10000
CC(C)NC(=O)C(C)(Cc1c[nH]c2ccccc12)NCc1cc2ccccc2o1 (centres unmarked) [compound 92, 2-[(Benzofuran-2-ylmethyl)-amino]-3-(1H-indol-3-yl)-N-isopropyl-2-methyl-propionamide]	2290
CC(Cc1c[nH]c2ccccc12)(NCc1cc2ccccc2o1)C(=O)NCc1cc(F)ccc1F (centres unmarked) [compound 139, 2-[(Benzofuran-2-ylmethyl)-amino]-N-(2,5-difluoro-benzyl)-3-(1H-indol-3-yl)-2-methyl-propionamide]	99
CC(Cc1c[nH]c2ccccc12)(NCc1cc2ccccc2o1)C(=O)NCCc1cccnc1 (centres unmarked) [compound 145, 2-[(Benzofuran-2-ylmethyl)-amino]-3-(1H-indol-3-yl)-2-methyl-N-(2-pyridin-3-yl-ethyl)-propionamide]	1300
CC(Cc1c[nH]c2ccccc12)(NCc1cc2ccccc2o1)C(=O)NCC1CCCO1 (centres unmarked) [compound 135, 2-[(Benzofuran-2-ylmethyl)-amino]-3-(1H-indol-3-yl)-2-methyl-N-(tetrahydro-furan-2-ylmethyl)-propionamide]	1200
CC(Cc1c[nH]c2ccccc12)(NCc1cc2ccccc2o1)C(=O)NCc1cccc([N+](=O)[O-])c1 (centres unmarked) [compound 112, 2-[(Benzofuran-2-ylmethyl)-amino]-3-(1H-indol-3-yl)-2-methyl-N-(3-nitro-benzyl)-propionamide]	12
CC(Cc1c[nH]c2ccccc12)(NCc1cc2ccccc2o1)C(=O)NCC(CC(=O)O)c1ccccc1 (centres unmarked) [compound 152, 4-[2-[(Benzofuran-2-ylmethyl)-amino]-3-(1H-indol-3-yl)-2-methyl-propionylamino]-3-phenyl-butyric acid]	> 10000
CNCCNC(=O)C(C)(Cc1c[nH]c2ccccc12)NCc1cc2ccccc2o1 (centres unmarked) [compound 76, 2-[(Benzofuran-2-ylmethyl)-amino]-3-(1H-indol-3-yl)-2-methyl-N-(2-methylamino-ethyl)-propionamide]	3700
